Measured values from article PMC9531272, “Xanthine oxidase inhibitory study of eight structurally diverse phenolic compounds” (Frontiers in Nutrition, 2022).
Like-named read-outs stand apart in the source and are kept apart here.

Key:
Xanthine oxidase (XO) [1] = biological target: T1, Xanthine oxidase (XO) (Bos taurus, UniProt P80457); assay: XO inhibitory activity of phenolic compounds (absorbance at 292 nm); assay type: biochemical; settings: XO 0.1 U/ml, 37°C, 15 min preincubation; mean ± SD
T1 construct: purchased Sigma-Aldrich (Shanghai, P. R. China)

Xanthine oxidase (XO) [2] = biological target: T1, Xanthine oxidase (XO); assay: Determination of inhibition type (Line-weaver Burk plot); assay type: biochemical; settings: Line-weaver Burk plot analysis toward XO
XO = settings: cited from earlier work; for IC50: read-out: IC50 against XO

T1 sequence (P80457 whole entry): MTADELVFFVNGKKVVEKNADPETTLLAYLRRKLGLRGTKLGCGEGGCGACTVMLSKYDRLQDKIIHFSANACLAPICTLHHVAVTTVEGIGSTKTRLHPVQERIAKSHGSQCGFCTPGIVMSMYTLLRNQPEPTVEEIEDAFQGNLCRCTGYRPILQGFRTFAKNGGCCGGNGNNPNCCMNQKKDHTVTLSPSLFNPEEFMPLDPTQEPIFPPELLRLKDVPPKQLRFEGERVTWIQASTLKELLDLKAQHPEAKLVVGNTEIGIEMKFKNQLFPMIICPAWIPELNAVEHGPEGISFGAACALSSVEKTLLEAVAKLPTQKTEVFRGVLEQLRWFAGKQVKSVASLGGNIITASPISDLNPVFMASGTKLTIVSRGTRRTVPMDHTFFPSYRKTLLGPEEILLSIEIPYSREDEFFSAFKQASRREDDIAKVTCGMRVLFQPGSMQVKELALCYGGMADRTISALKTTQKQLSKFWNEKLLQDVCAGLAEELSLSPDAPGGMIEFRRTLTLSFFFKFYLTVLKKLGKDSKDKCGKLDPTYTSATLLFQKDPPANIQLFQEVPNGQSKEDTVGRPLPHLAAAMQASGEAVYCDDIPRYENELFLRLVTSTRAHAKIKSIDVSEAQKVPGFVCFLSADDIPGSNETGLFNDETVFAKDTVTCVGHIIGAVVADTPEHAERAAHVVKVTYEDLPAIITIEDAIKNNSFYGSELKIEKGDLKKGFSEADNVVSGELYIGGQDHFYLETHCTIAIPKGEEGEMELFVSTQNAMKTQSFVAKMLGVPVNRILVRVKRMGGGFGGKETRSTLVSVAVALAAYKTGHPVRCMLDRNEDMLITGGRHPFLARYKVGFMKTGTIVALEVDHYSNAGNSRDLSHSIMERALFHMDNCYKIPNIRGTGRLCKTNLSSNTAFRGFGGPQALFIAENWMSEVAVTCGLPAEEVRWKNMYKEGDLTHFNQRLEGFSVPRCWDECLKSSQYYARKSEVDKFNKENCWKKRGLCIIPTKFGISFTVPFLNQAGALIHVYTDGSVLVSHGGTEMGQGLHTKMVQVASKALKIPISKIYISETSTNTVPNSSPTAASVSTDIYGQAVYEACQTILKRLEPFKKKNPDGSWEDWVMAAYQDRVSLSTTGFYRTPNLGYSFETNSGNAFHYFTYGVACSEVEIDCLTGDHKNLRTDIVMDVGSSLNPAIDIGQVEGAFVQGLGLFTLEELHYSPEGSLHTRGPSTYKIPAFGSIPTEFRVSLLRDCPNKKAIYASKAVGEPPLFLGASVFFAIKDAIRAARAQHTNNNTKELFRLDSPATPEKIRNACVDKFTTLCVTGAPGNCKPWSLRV

Row | Structure (SMILES) | IC50 (Xanthine oxidase (XO) [1]) | Inhibition type (Xanthine oxidase (XO) [2]) | other results
1 | O=C(/C=C/c1ccc(O)c(O)c1)O[C@@H]1[C@H](O)C[C@@](O)(C(=O)O)C[C@H]1OC(=O)/C=C/c1ccc(O)c(O)c1 [C3, 4,5-O-dicaffeoylquinic acid] | 26.7 ± 1.2 µM | Mixed | –
2 | O=C(O)/C=C/c1ccc(O)c(O)c1 [C8, caffeic acid] | 95.6 ± 3.28 µM | – | XO inhibition (XO; at 125 μM concentration, ref Song et al. ([29])): 5.74 ± 2.64%; IC50 (XO; ref Chan et al. ([31])): > 50 µM; IC50 (XO; ref Nguyen et al. ([33])): 85.3 µM; IC50 (XO; ref Wang et al. ([28])): 53.5 µM; IC50 (XO; ref Wang et al. ([30])): 65.6 ± 2.71 µM
3 | O=c1c(O)c(-c2ccc(O)c(O)c2)oc2cc(O)cc(O)c12 [C1, quercetin] | – | Mixed | –
4 | O=C(/C=C/c1ccc(O)c(O)c1)O[C@@H]1CC(O)(C(=O)O)C[C@@H](OC(=O)/C=C/c2ccc(O)c(O)c2)C1O (some centres unmarked) [C4, 3,5-O-dicaffeoylquinic acid] | 28.9 ± 1.02 µM | Competitive | –
5 | O=C(/C=C/c1ccc(O)c(O)c1)O[C@H]1[C@H](O)C[C@](O)(C(=O)O)C[C@H]1O [C6, 4-O-caffeoylquinic acid] | 70.2 ± 2.25 µM | Competitive | –
6 | Oc1ncnc2[nH]ncc12 [Allopurinol, allopurinol, reference compound] | – | – | IC50 (XO; ref Wang et al. ([28])): 6.96 µM
7 | C[C@@H]1O[C@@H](Oc2c(-c3ccc(O)c(O)c3)oc3cc(O)cc(O)c3c2=O)[C@H](O)[C@H](O)[C@H]1O [C2, quercetin-3-rhamnoside] | 12.1 ± 0.65 µM | Competitive | –
8 | O=C(/C=C/c1ccc(O)c(O)c1)O[C@H]1[C@H](O)C[C@](O)(C(=O)O)C[C@H]1OC(=O)/C=C/c1ccc(O)c(O)c1 [C5, 3,4-O-di-caffeoylquinic acid] | 44.6 ± 1.65 µM | Competitive | –
9 | O=C(/C=C/c1ccc(O)c(O)c1)O[C@@H]1C[C@](O)(C(=O)O)C[C@@H](O)[C@H]1O [C7, 3-O-caffeoylquinic acid] | 80.9 ± 3.06 µM | Competitive | –
